Consider three molecules from US6846925B2, “Colchinol derivatives as angiogenesis inhibitors” (Angiogene Pharmaceuticals Limited, priority 2000, dated 2005).

The subject of assay [1] is Hras5 tumours (NIH 3T3 fibroblasts transfected with Harvey ras, clone 5). The assay can be described thus: Hras5 necrosis model. The class given is in vivo, nude mice. The conditions noted are these: single dose, culled 24 hours after dosing. Here is the method: NIH 3T3 fibroblasts transfected with Harvey ras, clone 5, (Hras5 cells) were kept in continual passage in Dulbecco's modifed Eagles medium (DMEM) containing 10% foetal bovine serum (FBS) and 1% glutamine, at 37° C. in a humidified incubator gassed with 7.5% carbon dioxide and […]. Cells were implanted subcutaneously into the left flank of male nude mice (8-10 weeks of age) at an inoculum of 2×10^5 cells/mouse. Tumours were measured using calipers and randomised into groups of 2-4 mice between days 9-14 after implant. Mice were dosed with compounds, either intravenously or intraperitoneally, once on day of randomisation and culled 24 hours after dosing. Compounds were dissolved in 20% hydroxypropyl beta cyclodextrin in physiological saline at pH 7 and dosed in a volume of 0.1 ml per 10 g body weight. Tumours were excised, weighed and placed in buffered formalin. Area of necrosis in individual tumours was assessed from a haematoxylin/eosin stained-slide by a pathologist and scored from 0, meaning no significant change, to 10, meaning 91-100% necrosis. The activity of examples 5 and 7 (described hereinafter) against tumour vasculature was measured by the fluorescent dye method described hereinabove. Example 1 scored 6.0 at 100 m/kg and example 4 scored 3.2 at 50 m/kg.

Assay [2] deals with tumour vasculature of CaNT tumours. The assay can be described thus: Activity against tumour vasculature measured by fluorescent dye (Hoechst 33342). The class given is in vivo. The conditions noted are these: CaNT tumour-bearing mice, 50 mg/kg intraperitoneally, dye 24 hours after drug treatment. As to the method: (b) Activity Against Tumour Vasculature Measured by Fluorescent Dye
Tumour functional vascular volume in CaNT tumour-bearing mice was measured using the fluorescent dye Hoechst 33342 according to the method of Smith et al (Brit. Jnl. Cancer 1988, 57, 247-253). Five animals were used in control and treated groups. The fluorescent dye was dissolved in saline at 6.25 mg/ml and injected intravenously at 10 mg/kg 24 hours after intraperitoneal drug treatment. One minute later, animals were killed and tumours excised and frozen; 10 μm sections were cut at 3 different levels and observed under UV illumination using an Olympus microscope equipped with epifluorescence. Blood vessels were identified by their fluorescent outlines and vascular volume was quantified using a point scoring system based on that described by Chalkley, (Jnl. Natl. Cancer Inst., 1943, 4, 47-53). All estimates were based on counting a minimum of 100 fields from sections cut at the 3 different levels.

In the next assay the test system is tubulin. The conditions noted are these: O. Boye et al Med. Chem. Res., 1991, 1, 142-150; read-out: IC50 in a tubulin polymerisation assay; cited from earlier work.

SMILES strings stand for the structures.

In the case of `COc1ccc2c(c1)[C@@H](NC(=O)CNC(=O)CN)CCc1cc(OC)c(OC)c(OC)c1-2` [Example 1, N-[(5S)-3,9,10,11-Tetramethoxy-6,7-dihydro-5H-dibenzo[a,c]cyclohepten-5-yl]-2-[2-aminoacetylamino]acetamide], in assay [1] (100 m/kg), the “necrosis score (0 = no significant change, 10 = 91-100% necrosis)” value is 6.0. Turning to `COc1ccc2c(c1)[C@@H](NC(=O)OCCOP(=O)([O-])[O-])CCc1cc(OC)c(OC)c(OC)c1-2.[Na+].[Na+]` [Example 4, 2-{N-[(5S)-3,9,10,11-tetramethoxy-6,7-dihydro-5H-dibenzo[a,c]cyclohepten-5-yl]carbamoyloxy}ethyl disodium phosphate], in assay [1] (50 m/kg), the “necrosis score (0 = no significant change, 10 = 91-100% necrosis)” value turned out to be 3.2. `COc1cc2c(c(OC)c1OC)-c1ccc(N)cc1C(NC(C)=O)CC2` (stereo not shown) [N-[3-amino-9,10,11-trimethoxy-6,7-dihydro-5H-dibenzo[a,c]cyclohepten-5-yl]acetamide]: the “decrease of perfused vascular volume relative to control” value in assay [2] turned out to be 88%. Further, in the assay on tubulin, the IC50 is 58 µM.

A word on the IC50: it is the point on the concentration scale where inhibition reaches its midpoint.
